Test results as given in US11583542B2, “Compositions of bile acids and phenylbutyrate compounds” (Amylyx Pharmaceuticals Inc., priority 2019, dated 2023).

Experiments:
Format in all cases: physicochemical
[1] = Bulk density, tapped density, Hausner ratio and Carr's index; settings: powder; calculated from bulk and tapped density
Description: Bulk density was calculated for each API and blend by gently pouring powder into a 25 mL graduated cylinder. Tapped density was calculated using a tapped volumeter to compact each powder using 100-tap increments until volume change was <5%. Hausner ratio and Carr's index were then calculated using bulk density and tapped density. Formulation C was selected based on flow characteristics. Carr's index, in addition to being a measure of compressibility, may also be used to determine the flow properties of a material. […] Acceptable flow property (as determined by the packaging equipment used) was a minimum of a Carr's index of under 25, with a Carr's index of below 20 being preferable.
Each API was blended and roller compacted with excipients separately to determine if the proximity of the dual APIs in the blend or granules was responsible for agglomeration. The resulting granules were then recombined and blended before filling test sachets. Bulk and tapped densities of each blend were measured prior to roller compaction. For this experiment, all silica were used at 1% W/W. Aerosil 200 was used as a negative control while Syloid 244FP and Syloid 63FP were used to remove moisture from the APIs to determine if APIs would agglomerate with reduced local levels of water. […]

[2] = Dynamic Vapor Sorption (DVS) testing
Description: Samples of NaPB, TURSO, and modified formulation C1 blend were subjected to DVS testing to determine the magnitude of weight gain due to humidity.

[3] = Forced degradation studies (thermal, thermal-humidity, light, oxidation, acid, base); settings: for degradation of API: API alone
Description: Each API and the final formulation (referred to as “AMX powder in sachet”) containing both APIs were also subjected to forced degradation studies. The study included stressing samples of PB (sodium phenylbutyrate) API, TURSO API, placebo, and AMX Powder in Sachet under thermal, thermal-humidity, light, oxidation, acid, or base conditions (Table 49).

[4] = Loss on Drying (LOD) testing; settings: excipients
Description: After storage in sealed bottles for about one week, slight agglomeration of blends was observed.
LOD testing was performed on recovered agglomerated blend (PD2016-015-33B) after ˜2 hours of drying at 50° C. to determine the degree of moisture uptake. Results were compared against a non-agglomerated blend that had been stored in a sealed bottle (PD2016-015-29A).

[5] = Base 3 Days (1.0N NaOH, 50° C.)
[6] = Base 7 Days (1.0N NaOH, 50° C.)
[7] = Thermal-Humidity (85° C. + 1.0 mL water, 10 days)

O=C(O)CCCc1ccccc1 [NaPB, sodium phenylbutyrate]
Carr's index [1]: 39.2
DVS change in mass ([2]; above 45% RH): massive fluctuations in mass
Fluctuations in mass ([2]; moisture uptake): up to 50%
degradation of API ([3]; any of the forced degradation conditions studied): did not degrade
% PB / % (PB) Potency ([3]; Acid 3 Days (1.0N HCl, 50° C.)): 99.1%
% PB remaining ([3]; Acid 3 Days (1.0N HCl, 50° C.)): 99.9%
% RMBD (Relative Mass Balance Deficit), PB ([3]; Acid 3 Days (1.0N HCl, 50° C.)): 99.0%
% Total RS / % Total PB Impurity ([3]; Acid 3 Days (1.0N HCl, 50° C.)): 1.18%
Mass Balance / PB Sum ([3]; Acid 3 Days (1.0N HCl, 50° C.)): 100.28
% PB / % (PB) Potency ([3]; Acid 7 Days (1.0N HCl, 50° C.)): 99.7%
% PB remaining ([3]; Acid 7 Days (1.0N HCl, 50° C.)): 100.5%
% RMBD (Relative Mass Balance Deficit), PB ([3]; Acid 7 Days (1.0N HCl, 50° C.)): 99.6%
% Total RS / % Total PB Impurity ([3]; Acid 7 Days (1.0N HCl, 50° C.)): 1.14%
Mass Balance / PB Sum ([3]; Acid 7 Days (1.0N HCl, 50° C.)): 100.84
% PB remaining [3, 5]: 99.7%
% RMBD (Relative Mass Balance Deficit), PB [3, 5]: 98.8%
% Total RS / % Total PB Impurity [3, 5]: 1.11%
Mass Balance / PB Sum [3, 5]: 100.01
% PB / % (PB) Potency [3, 6]: 99.8%
% PB remaining [3, 6]: 100.6%
% RMBD (Relative Mass Balance Deficit), PB [3, 6]: 99.6%
% Total RS / % Total PB Impurity [3, 6]: 1.10%
Mass Balance / PB Sum [3, 6]: 100.90
% PB / % (PB) Potency ([3]; Control): 99.2%
% Total RS / % Total PB Impurity ([3]; Control): 2.07%
Mass Balance / PB Sum ([3]; Control): 101.27
% PB / % (PB) Potency ([3]; Light (1 × ICH condition)): 98.3%
% PB remaining ([3]; Light (1 × ICH condition)): 99.3%
% RMBD (Relative Mass Balance Deficit), PB ([3]; Light (1 × ICH condition)): 99.1%
% Total RS / % Total PB Impurity ([3]; Light (1 × ICH condition)): 0.74%
Mass Balance / PB Sum ([3]; Light (1 × ICH condition)): 99.04
% PB / % (PB) Potency ([3]; Light Control): 99.0%
% Total RS / % Total PB Impurity ([3]; Light Control): 0.96%
Mass Balance / PB Sum ([3]; Light Control): 99.96
% PB remaining ([3]; Oxidation (3% H2O2)): 99.4%
% RMBD (Relative Mass Balance Deficit), PB ([3]; Oxidation (3% H2O2)): 100.5%
% Total RS / % Total PB Impurity ([3]; Oxidation (3% H2O2)): 3.13%
Mass Balance / PB Sum ([3]; Oxidation (3% H2O2)): 101.73
% PB / % (PB) Potency ([3]; Thermal (85° C., 10 days)): 98.9%
% PB remaining ([3]; Thermal (85° C., 10 days)): 99.7%
% RMBD (Relative Mass Balance Deficit), PB ([3]; Thermal (85° C., 10 days)): 101.5%
% Total RS / % Total PB Impurity ([3]; Thermal (85° C., 10 days)): 3.93%
Mass Balance / PB Sum ([3]; Thermal (85° C., 10 days)): 102.83
% PB / % (PB) Potency [3, 7]: 99.3%
% PB remaining [3, 7]: 100.1%
% RMBD (Relative Mass Balance Deficit), PB [3, 7]: 99.2%
% Total RS / % Total PB Impurity [3, 7]: 1.16%
Mass Balance / PB Sum [3, 7]: 100.48

C[C@H](CCC(=O)NCCS(=O)(=O)O)[C@H]1CC[C@H]2[C@@H]3[C@@H](O)C[C@@H]4C[C@H](O)CC[C@]4(C)[C@H]3CC[C@]12C [TUDCA API]
% RMBD, TUDCA ([3]; Acid 3 Days (1.0N HCl, 50° C.)): 99.8%
% TUDCA / % (TUDCA) Potency ([3]; Acid 3 Days (1.0N HCl, 50° C.)): 100.0%
% TUDCA remaining ([3]; Acid 3 Days (1.0N HCl, 50° C.)): 99.8%
% Total RS / % Total TUDCA Impurity ([3]; Acid 3 Days (1.0N HCl, 50° C.)): 0.23%
Sum / TUDCA Sum ([3]; Acid 3 Days (1.0N HCl, 50° C.)): 100.23
% RMBD, TUDCA ([3]; Acid 7 Days (1.0N HCl, 50° C.)): 97.0%
% TUDCA / % (TUDCA) Potency ([3]; Acid 7 Days (1.0N HCl, 50° C.)): 97.2%
% TUDCA remaining ([3]; Acid 7 Days (1.0N HCl, 50° C.)): 97.0%
% Total RS / % Total TUDCA Impurity ([3]; Acid 7 Days (1.0N HCl, 50° C.)): 0.20%
Sum / TUDCA Sum ([3]; Acid 7 Days (1.0N HCl, 50° C.)): 97.40
% Degradation Observed / Conclusion ([3]; Acid: 10 mL of 1.0N HCl per sample for 3 days at 50° C.): No significant
% RMBD, TUDCA [3, 5]: 94.9%
% TUDCA / % (TUDCA) Potency [3, 5]: 95.1%
% TUDCA remaining [3, 5]: 94.9%
% Total RS / % Total TUDCA Impurity [3, 5]: 0.22%
Sum / TUDCA Sum [3, 5]: 95.32
% RMBD, TUDCA [3, 6]: 82.6%
% TUDCA / % (TUDCA) Potency [3, 6]: 82.8%
% TUDCA remaining [3, 6]: 82.6%
% Total RS / % Total TUDCA Impurity [3, 6]: 0.18%
Sum / TUDCA Sum [3, 6]: 82.98
% TUDCA / % (TUDCA) Potency ([3]; Control): 100.2%
% Total RS / % Total TUDCA Impurity ([3]; Control): 0.22%
Sum / TUDCA Sum ([3]; Control): 100.42.
% RMBD, TUDCA ([3]; Light (1 × ICH condition)): 103.2%
% TUDCA / % (TUDCA) Potency ([3]; Light (1 × ICH condition)): 99.5%
% TUDCA remaining ([3]; Light (1 × ICH condition)): 103.2%
% Total RS / % Total TUDCA Impurity ([3]; Light (1 × ICH condition)): 0.24%
Sum / TUDCA Sum ([3]; Light (1 × ICH condition)): 99.74
% TUDCA / % (TUDCA) Potency ([3]; Light Control): 96.4%
% Total RS / % Total TUDCA Impurity ([3]; Light Control): 0.22%
Sum / TUDCA Sum ([3]; Light Control): 96.62
% Degradation Observed / Conclusion ([3]; Light: 1 × ICH condition (White light NLT 1.2 million lux hours and UV light NLT 200 W hours/m^2)): No significant
% RMBD, TUDCA ([3]; Oxidation (3% H2O2)): 98.8%
% TUDCA / % (TUDCA) Potency ([3]; Oxidation (3% H2O2)): 97.1%
% TUDCA remaining ([3]; Oxidation (3% H2O2)): 93.9%
% Total RS / % Total TUDCA Impurity ([3]; Oxidation (3% H2O2)): 1.36%
Sum / TUDCA Sum ([3]; Oxidation (3% H2O2)): 98.46
% Degradation Observed / Conclusion ([3]; Oxidation: 10 mL of 3% H2O2 per sample): ~3%
% RMBD, TUDCA ([3]; Thermal (85° C., 10 days)): 100.5%
% TUDCA / % (TUDCA) Potency ([3]; Thermal (85° C., 10 days)): 100.6%
% TUDCA remaining ([3]; Thermal (85° C., 10 days)): 100.4%
% Total RS / % Total TUDCA Impurity ([3]; Thermal (85° C., 10 days)): 0.28%
Sum / TUDCA Sum ([3]; Thermal (85° C., 10 days)): 100.88
% RMBD, TUDCA [3, 7]: 0.0%
% TUDCA remaining [3, 7]: 0%
Sum / TUDCA Sum [3, 7]: 0.00
% Degradation Observed / Conclusion ([3]; Thermal-Humidity: 85° C. + 1.0 mL water per sample for 10 days): Full degradation/
% Degradation Observed / Conclusion ([3]; Thermal: 85° C. for 10 days): No significant

C[C@H](CCC(=O)NCCS(=O)(=O)O)[C@H]1CC[C@H]2[C@@H]3[C@@H](O)C[C@@H]4C[C@H](O)CC[C@]4(C)[C@H]3CC[C@]12C [TURSO, tauroursodeoxycholic acid]
Carr's index [1]: 24.2
degradation of API ([3]; Thermal-Humidity condition): no TURSO peak was detected
degradation of API ([3]; acidic condition, by Day 7): degraded slightly
degradation of API ([3]; base condition, by Day 3): degraded slightly
degradation of API ([3]; base condition, by Day 7): ~17%
degradation of API ([3]; light condition): did not degrade
degradation of API ([3]; oxidation condition, by Day 3): degraded slightly
degradation of API ([3]; thermal condition): did not degrade
% Degradation Observed / Conclusion ([3]; Acid: 10 mL of 1.0N HCl per sample for 3 days at 50° C., listed as TURSO API): None
% Degradation Observed / Conclusion ([3]; Acid: 10 mL of 1.0N HCl per sample for 7 days at 50° C.): ~3%
% Degradation Observed / Conclusion ([3]; Base: 10 mL of 1.0N NaOH per sample for 3 days at 50° C.): ~5%
% Degradation Observed / Conclusion ([3]; Base: 10 mL of 1.0N NaOH per sample for 7 days at 50° C.): ~17%
% Degradation Observed / Conclusion ([3]; Light: 1 × ICH condition (White light NLT 1.2 million lux hours and UV light NLT 200 W hours/m^2), listed as TURSO API): None
% Degradation Observed / Conclusion ([3]; Oxidation: 10 mL of 3% H2O2 per sample, listed as TURSO API): 3%
% Degradation Observed / Conclusion ([3]; Thermal-Humidity: 85° C. + 1.0 mL water per sample for 10 days, listed as TURSO API): 100%
% Degradation Observed / Conclusion ([3]; Thermal: 85° C. for 10 days, listed as TURSO API): None

OC[C@@H](O)[C@@H](O)[C@H](O)[C@@H](O)CO [sorbitol]
water uptake by loss-on-drying (LOD) testing [4]: neither exhibited massive water uptake
